The subject of experiment [1] is human prostate PC3-mm2 tumor cell line. Description: In vitro cell culture growth assay (MTS), PC3-mm2. It is filed as cell-based. The conditions noted are these: Homo sapiens, PC3MM2, 72 h, MTS cell growth assay, three days after drug treatment; read-out: IC50 PC3-mm2. For orientation: Tetrazolium dyes change colour on reduction, which living cells bring about.
Experiment [2] deals with human breast MDA-MB-361 tumor cell line. Description: In vitro cell culture growth assay (MTS), MDA-MB-361. It is filed as cell-based. The conditions noted are these: Homo sapiens, MDA-MB-361, 72 h; MTS cell growth assay, three days after drug treatment; read-out: IC50 MDA-MB-361.
For another experiment, the target named is Human mTOR (FLAG-TOR) (Homo sapiens, UniProt P42345). Put plainly: mTOR kinase assay (DELFIA format, purified enzyme). It is filed as biochemical. The conditions noted are these: read-out: IC50 mTOR.
In another experiment the target is PI3K-α (Homo sapiens, UniProt P42336). Description: PI3K-alpha fluorescence polarization assay. The conditions noted are these: read-out: IC50 PI3Kα. (In general: Polarisation of emitted light reports the rotation of a fluorescent probe.)
The target of the next experiment is PI3K-γ (Homo sapiens, UniProt P48736). Put plainly: PI3K-gamma fluorescence polarization assay. The conditions noted are these: read-out: IC50 PI3Kγ.

This passage reports IC50 results from patent US20090304692A1, “TRIAZINE COMPOUNDS AS PI3 KINASE AND MTOR INHIBITORS” (Wyeth, priority 2008, published 2009).

Each structure is given as a SMILES string. Bounds are passed on as bounds.

The term IC50 denotes the concentration needed to halve the response being measured.

PI3K-γ, sequence (P48736 whole entry, species assumed): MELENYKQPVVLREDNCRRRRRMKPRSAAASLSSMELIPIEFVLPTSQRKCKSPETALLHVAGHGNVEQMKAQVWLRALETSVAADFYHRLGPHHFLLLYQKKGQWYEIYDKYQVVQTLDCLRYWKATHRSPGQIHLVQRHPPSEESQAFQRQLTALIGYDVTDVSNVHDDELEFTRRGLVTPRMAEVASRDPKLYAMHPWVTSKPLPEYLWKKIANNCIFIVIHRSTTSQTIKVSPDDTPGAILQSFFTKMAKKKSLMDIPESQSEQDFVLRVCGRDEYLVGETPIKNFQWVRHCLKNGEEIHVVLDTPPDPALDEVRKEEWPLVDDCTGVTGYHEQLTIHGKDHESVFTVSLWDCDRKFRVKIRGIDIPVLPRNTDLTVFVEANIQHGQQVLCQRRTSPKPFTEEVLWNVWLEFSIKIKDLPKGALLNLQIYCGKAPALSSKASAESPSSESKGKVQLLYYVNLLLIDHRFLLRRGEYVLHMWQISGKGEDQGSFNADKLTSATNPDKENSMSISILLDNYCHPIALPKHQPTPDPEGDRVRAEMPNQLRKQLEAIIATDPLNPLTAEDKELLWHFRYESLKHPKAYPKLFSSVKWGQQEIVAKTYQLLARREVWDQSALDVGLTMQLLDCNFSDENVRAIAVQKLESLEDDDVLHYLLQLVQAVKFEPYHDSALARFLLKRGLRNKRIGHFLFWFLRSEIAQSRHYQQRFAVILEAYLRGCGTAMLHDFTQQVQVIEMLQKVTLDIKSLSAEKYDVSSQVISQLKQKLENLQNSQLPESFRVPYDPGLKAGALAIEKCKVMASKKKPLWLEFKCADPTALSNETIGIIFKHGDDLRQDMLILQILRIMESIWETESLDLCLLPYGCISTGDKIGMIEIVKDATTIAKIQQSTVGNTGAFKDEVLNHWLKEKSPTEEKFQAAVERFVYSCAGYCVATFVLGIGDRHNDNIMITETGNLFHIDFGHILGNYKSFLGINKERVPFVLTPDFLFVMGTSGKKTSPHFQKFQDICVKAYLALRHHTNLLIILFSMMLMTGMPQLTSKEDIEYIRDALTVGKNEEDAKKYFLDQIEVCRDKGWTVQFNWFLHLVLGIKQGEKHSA
PI3K-α, sequence (P42336 whole entry, species assumed): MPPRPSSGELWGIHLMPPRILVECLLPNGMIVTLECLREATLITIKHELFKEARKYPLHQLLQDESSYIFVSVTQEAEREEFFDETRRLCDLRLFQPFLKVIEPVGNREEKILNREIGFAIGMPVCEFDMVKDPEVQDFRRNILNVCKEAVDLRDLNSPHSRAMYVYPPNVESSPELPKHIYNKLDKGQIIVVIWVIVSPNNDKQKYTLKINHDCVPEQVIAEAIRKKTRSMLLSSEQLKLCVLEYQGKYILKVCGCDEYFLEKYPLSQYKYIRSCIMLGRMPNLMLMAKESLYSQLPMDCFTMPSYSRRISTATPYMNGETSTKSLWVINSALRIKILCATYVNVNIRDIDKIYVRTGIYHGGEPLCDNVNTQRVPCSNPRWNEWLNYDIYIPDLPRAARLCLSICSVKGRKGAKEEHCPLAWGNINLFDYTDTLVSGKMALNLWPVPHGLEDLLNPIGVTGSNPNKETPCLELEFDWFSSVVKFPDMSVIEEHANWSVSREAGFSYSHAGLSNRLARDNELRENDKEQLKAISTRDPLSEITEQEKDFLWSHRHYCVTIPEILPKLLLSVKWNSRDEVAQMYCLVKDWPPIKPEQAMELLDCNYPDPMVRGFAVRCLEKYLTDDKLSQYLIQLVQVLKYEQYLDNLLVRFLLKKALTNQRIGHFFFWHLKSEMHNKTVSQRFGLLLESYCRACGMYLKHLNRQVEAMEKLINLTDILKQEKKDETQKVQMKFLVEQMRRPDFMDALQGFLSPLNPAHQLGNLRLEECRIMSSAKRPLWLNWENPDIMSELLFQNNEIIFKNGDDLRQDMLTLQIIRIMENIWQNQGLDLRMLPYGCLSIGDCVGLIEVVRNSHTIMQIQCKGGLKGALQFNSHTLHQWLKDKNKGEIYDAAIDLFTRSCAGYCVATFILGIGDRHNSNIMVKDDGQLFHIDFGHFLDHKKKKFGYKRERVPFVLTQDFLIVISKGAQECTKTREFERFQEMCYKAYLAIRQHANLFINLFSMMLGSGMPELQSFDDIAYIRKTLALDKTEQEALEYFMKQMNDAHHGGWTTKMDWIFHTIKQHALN
PI3K-α, sequence (P27986 whole entry partner, species assumed): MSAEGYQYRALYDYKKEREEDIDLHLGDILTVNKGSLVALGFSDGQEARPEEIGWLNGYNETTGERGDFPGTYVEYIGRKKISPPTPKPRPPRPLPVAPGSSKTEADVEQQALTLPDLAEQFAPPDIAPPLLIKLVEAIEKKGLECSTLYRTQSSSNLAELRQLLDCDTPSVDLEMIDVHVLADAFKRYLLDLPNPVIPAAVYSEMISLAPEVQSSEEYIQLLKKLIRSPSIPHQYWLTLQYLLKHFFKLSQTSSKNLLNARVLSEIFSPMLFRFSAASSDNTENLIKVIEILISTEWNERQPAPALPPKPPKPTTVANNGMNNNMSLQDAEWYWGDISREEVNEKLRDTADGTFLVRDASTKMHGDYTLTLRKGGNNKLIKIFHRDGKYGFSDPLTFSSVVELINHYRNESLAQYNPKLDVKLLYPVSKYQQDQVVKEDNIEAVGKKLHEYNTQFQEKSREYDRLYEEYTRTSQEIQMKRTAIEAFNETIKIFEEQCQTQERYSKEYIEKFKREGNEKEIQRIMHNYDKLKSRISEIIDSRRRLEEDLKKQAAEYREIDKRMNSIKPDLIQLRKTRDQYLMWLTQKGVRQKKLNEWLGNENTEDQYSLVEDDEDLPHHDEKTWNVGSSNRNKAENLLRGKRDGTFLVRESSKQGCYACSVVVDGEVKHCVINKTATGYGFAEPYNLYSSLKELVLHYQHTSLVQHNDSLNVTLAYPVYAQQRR
Human mTOR (FLAG-TOR), sequence (P42345 1360-2549 limits assumed): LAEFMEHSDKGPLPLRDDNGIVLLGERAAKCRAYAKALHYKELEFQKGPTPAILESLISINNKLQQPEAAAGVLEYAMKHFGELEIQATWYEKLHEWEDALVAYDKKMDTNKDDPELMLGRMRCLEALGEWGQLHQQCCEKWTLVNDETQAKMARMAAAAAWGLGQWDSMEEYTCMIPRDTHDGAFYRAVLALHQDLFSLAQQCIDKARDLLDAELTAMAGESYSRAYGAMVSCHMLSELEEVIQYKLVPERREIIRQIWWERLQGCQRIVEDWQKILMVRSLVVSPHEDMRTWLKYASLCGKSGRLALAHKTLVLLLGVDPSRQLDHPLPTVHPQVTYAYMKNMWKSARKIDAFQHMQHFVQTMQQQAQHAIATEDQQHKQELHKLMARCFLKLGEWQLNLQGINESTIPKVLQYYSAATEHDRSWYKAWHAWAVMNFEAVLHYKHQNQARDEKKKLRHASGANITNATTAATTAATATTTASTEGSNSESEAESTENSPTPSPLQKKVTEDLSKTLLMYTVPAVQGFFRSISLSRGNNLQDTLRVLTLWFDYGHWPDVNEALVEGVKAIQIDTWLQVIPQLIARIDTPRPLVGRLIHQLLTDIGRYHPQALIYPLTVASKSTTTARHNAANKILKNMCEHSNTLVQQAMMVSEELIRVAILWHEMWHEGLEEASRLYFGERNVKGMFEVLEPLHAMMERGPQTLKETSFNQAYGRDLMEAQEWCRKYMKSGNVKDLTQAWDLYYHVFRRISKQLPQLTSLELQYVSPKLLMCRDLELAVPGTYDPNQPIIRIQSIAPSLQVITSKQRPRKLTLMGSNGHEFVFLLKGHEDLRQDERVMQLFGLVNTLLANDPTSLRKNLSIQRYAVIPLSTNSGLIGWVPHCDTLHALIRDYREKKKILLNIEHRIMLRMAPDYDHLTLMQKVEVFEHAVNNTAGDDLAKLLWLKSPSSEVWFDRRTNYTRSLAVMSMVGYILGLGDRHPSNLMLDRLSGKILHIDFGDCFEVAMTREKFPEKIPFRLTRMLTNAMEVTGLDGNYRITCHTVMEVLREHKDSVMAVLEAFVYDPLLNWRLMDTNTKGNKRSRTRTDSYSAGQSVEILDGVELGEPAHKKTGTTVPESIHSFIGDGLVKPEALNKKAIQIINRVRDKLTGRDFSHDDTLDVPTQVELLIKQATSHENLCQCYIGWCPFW

For `O=C(Nc1ccc(-c2nc(NC3CNC3)nc(N3CCOCC3)n2)cc1)Nc1cccnc1` [Example 18, 1-{4-[4-(azetidin-3-ylamino)-6-morpholin-4-yl-1,3,5-triazin-2-yl]phenyl}-3-pyridin-3-ylurea], the half-maximal inhibitory concentration (IC50) in experiment [1] was found to be 7100 nM; in experiment [2], 2660 nM; at Human mTOR (FLAG-TOR) it was 36 nM; at PI3K-α it was 9 nM; on PI3K-γ, 71 nM.

As to `O=C(Nc1ccc(F)cc1)Nc1ccc(-c2nc(NC3CNC3)nc(N3CCOCC3)n2)cc1` [Example 19, 1-{4-[4-(azetidin-3-ylamino)-6-morpholin-4-yl-1,3,5-triazin-2-yl]phenyl}-3-(4-fluorophenyl)urea], the IC50 in experiment [1] was 1600 nM; in experiment [2], 1030 nM; at Human mTOR (FLAG-TOR), 39 nM; on PI3K-α it was 23 nM; on PI3K-γ, 206 nM.

In the case of `Cc1ccc(NC(=O)Nc2ccc(-c3nc(NC4CNC4)nc(N4CCOCC4)n3)cc2)cc1` [Example 20, 1-{4-[4-(azetidin-3-ylamino)-6-morpholin-4-yl-1,3,5-triazin-2-yl]phenyl}-3-(4-methylphenyl)urea], the IC50 in experiment [1] is > 10000 nM; in experiment [2] it was > 10000 nM; at Human mTOR (FLAG-TOR), 30.5 nM; on PI3K-α it was 41 nM; at PI3K-γ it was 258 nM.

For `CC(C)(C)OC(=O)N1CC(Nc2nc(-c3ccc(NC(=O)Nc4ccncc4)cc3)nc(N3CCOCC3)n2)C1` [Example 21, tert-butyl 3-[(4-morpholin-4-yl-6-{4-[(pyridine-4-ylcarbamoyl)amino]phenyl}-1,3,5-triazin-2-yl)amino]azetidine-1-carboxylate], the IC50 came out at 246 nM in experiment [1]; 129 nM in experiment [2]; 1.75 nM at Human mTOR (FLAG-TOR); 22 nM on PI3K-α; 92 nM at PI3K-γ.

As to `O=C(Nc1ccncc1)Nc1ccc(-c2nc(NC3CNC3)nc(N3CCOCC3)n2)cc1` [Example 22, 1-{4-[4-(azetidin-3-ylamino)-6-morpholin-4-yl-1,3,5-triazin-2-yl]phenyl}-3-pyridin-4-ylurea], the IC50 in experiment [1] stood at 2440 nM; in experiment [2], 1420 nM; at Human mTOR (FLAG-TOR), 4.75 nM; at PI3K-α, 12 nM; at PI3K-γ it was 142 nM.

As for `O=C(Nc1ccccc1)Nc1ccc(-c2nc(N3CCOCC3)nc(N3CC4CCC(C3)O4)n2)cc1` [Example 23, 1-{4-[4-morpholin-4-yl-6-(8-oxa-3-azabicyclo[3.2.1]oct-3-yl)-1,3,5-triazin-2-yl]phenyl}-3-phenylurea], the IC50 is 147 nM in experiment [1]; 104 nM in experiment [2]; 2.05 nM at Human mTOR (FLAG-TOR); 18 nM on PI3K-α; 51 nM at PI3K-γ.

On to `O=C(Nc1ccc(F)cc1)Nc1ccc(-c2nc(N3CCOCC3)nc(N3CC4CCC(C3)O4)n2)cc1` [Example 24, 1-(4-fluorophenyl)-3-{4-[4-morpholin-4-yl-6-(8-oxa-3-azabicyclo[3.2.1]oct-3-yl)-1,3,5-triazin-2-yl]phenyl}urea], for which the IC50 in experiment [1] was 142 nM; in experiment [2], 122 nM; on Human mTOR (FLAG-TOR), 2.7 nM; at PI3K-α it was 22 nM; on PI3K-γ it was 99 nM.

As for `Cc1ccc(NC(=O)Nc2ccc(-c3nc(N4CCOCC4)nc(N4CC5CCC(C4)O5)n3)cc2)cc1` [Example 25, 1-(4-methylphenyl)-3-{4-[4-morpholin-4-yl-6-(8-oxa-3-azabicyclo[3.2.1]oct-3-yl)-1,3,5-triazin-2-yl]phenyl}urea], the IC50 in experiment [1] is 258 nM; in experiment [2] it was 264 nM; on Human mTOR (FLAG-TOR), 4.05 nM; on PI3K-α, 58 nM; on PI3K-γ, 105 nM.
